Reference: US20160168140A1, “HETEROCYCLIC COMPOUNDS AS ANTIBIOTIC POTENTIATORS” (priority 2014, published 2016)

Experiments:
Ab23 = assay: Time-kill assay with colistin and potentiator; type: cell-based, Acinetobacter baumannii; design: time-kill: concentration of potentiator required for effect: unit not given here; conditions: for time-kill: effect on Ab23 cells in the absence of colistin: compound alone (compound III at 10 μM), FIGS. 2-4; for time-kill: effect in the presence of colistin: compound plus colistin, Ab23, FIGS. 2-4
Method: Colistin and potentiator were diluted to 1000× final concentrations in water and DMSO, respectively. Then, 3 μl of the appropriate dilutions were added to culture tubes. An overnight culture of Ab23 was diluted to 10^6 CFU/ml, and 3 mL of cells were added to the tubes. The cultures were incubated at 37° C. in an orbital shaker. An aliquot of the starting inoculum was serially diluted in CAMHB and spread on LB agar plates for CFU determination. At 2, 4, 8, and 24 hours, aliquots were removed from each of the culture tubes, diluted, and spread LB agar plates. The plates were incubated overnight at 37° C. The following day, the number of CFUs on each plate was counted, and the number of bacterial in each culture condition was calculated. Colistin (“C”) was tested at 2 and 8 µg/mL. The select compounds (“P”) were tested at 2 and 10 µg/mL. The dotted line indicates the limit of detection.

[1] = tested on: panel of Gram-negative bacteria with different colistin susceptibilities; assay: Fractional inhibitory concentration index (FICI) checkerboard assay with colistin; type: cell-based; conditions: for FICI Values of Colistin and Potentiator in Resistant Bacteria: FICI values of ≦0.5 indicate synergy
Method: The fractional inhibitory concentration index (FICI) was determined in combination with colistin using the broth microdilution susceptibility test method as described by the CLSI (Methods for Dilution Antimicrobial Susceptibility Tests for Bacteria That Grow Aerobically; Approved Standard-Ninth Edition. 2012. CLSI document M07-A9. CLIS, 940 West Valley Road, Suite 1400, Wayne, Pa. 19087-1898 USA). This checkerboard assay was set up with decreasing concentrations of colistin across the plate from left to right and decreasing concentrations of potentiator from top to bottom. The FICI values were then calculated using the methods of Lorian et al. (Antibiotics in Laboratory Medicine—Fifth Edition. 2005. Lippincott, Williams, & Wilkins, Philadelphia, Pa.). A panel of Gram-negative bacteria with different colistin susceptibilities were tested.
Each of the tested compounds synergized with colistin in the three species of colistin-resistant bacteria tested.

[2] = tested on: Acinetobacter baumannii (Ab23); assay: MIC shift assay of antibiotics (broth microdilution); type: cell-based; conditions: for Colistin MIC Shift: A. baumannii (MDR Ab), compd. concentration 4.0 μM, colistin MIC 0.5-1.0 μg/mL; for colistin MIC shift, Ab23 at (compd concentration): fold shift of colistin MIC, nc = no changeover or no shift
Procedure, shortened: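 Following a modified Wiegand broth microdilution protocol, colistin serial dilutions with or without test compound were set up in round-bottom 96-well plates and inoculated with A. baumannii cells to a starting OD600 of 0.005. Plates were shaken at 37° C. for 18 to 20 h and read at OD600. The fold shift was calculated from colistin MIC alone versus colistin MIC with test compound, with growth and medium-only blank controls.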

E. coli = assay: as above; type: cell-based; conditions: E. coli (SCR1); compd. concentration 4.0 μM; colistin MIC 0.5-1.0 μg/mL
Method: Minimum inhibitory concentration (MIC) shift assays were performed to determine if the test compounds could alter the MIC of existing antibacterial drugs (e.g., ciprofloxacin and colistin) for E. coli, Acinetobacter baumannii, Klebsiella pneumoniae, Pseudomonas aeruginosa, and Enterobacter cloacae. The MIC shift assay is based on the standard broth microdilution MIC determination protocol of Wiegand et al, Nat Protoc. 3(2):163-75 (2008), with slight modifications that allow for the screening of up to seven test compounds in a single plate.
On the day before an assay, bacteria were grown overnight in cation-adjusted Mueller Hinton broth (CAMHB; Teknova, Hollister, Calif.) at 37° C. in an orbital shaker and sub-cultured at a 1:200 dilution the following morning. The cells were grown to OD600=0.5 to 0.8 and then diluted to OD600=0.01. From a serial dilution of each antibiotic at (50 μL of 2× concentrated stock solutions) several concentrations were added to the wells of a sterile, transparent round-bottom 96-well plate (Phenix Research Products, Candler, N.C.), and diluted cells (50 μL) were added to the plates for a starting OD600 of 0.005. Then, a test compound (2.5 μL) was added to each well to give a final concentration of 4 or 10 μM. A row of wells lacking test compound but containing the antibiotic was used to determine the MIC of that antibiotic alone. A column of wells lacking both antibiotic and test compound served as a growth control, and an additional column containing only CAMHB was included as a sterile blank control.
The plates were incubated for 18 to 20 h at 37° C. in an orbital shaker, and the cell density (OD600) was determined the following day in a microplate reader (PolarStar Optima, BMG Labtech). The MIC shift was determined by comparing the MIC of the antibiotic alone to the MIC of the antibiotic plus test compound.

[3] = colistin-resistant A. baumannii
[4] = colistin-resistant K. pneumoniae
[5] = colistin-resistant P. aeruginosa

Colistin MIC Shift [2] [x]	Colistin MIC Shift (E. coli) [x]	colistin MIC shift, Ab23 at (compd concentration) ([2]; compound concentration 2 μM)	Compound	other results
			Clc1ccc(/C=C/c2c[nH]c3ccc(Br)cc23)cc1Cl [compound I]	time-kill: effect on Ab23 cells in the absence of colistin (Ab23): had no effect on the cells; time-kill: effect in the presence of colistin (Ab23): potent synergists of colistin; time-kill: concentration of potentiator required for effect (Ab23; in combination with colistin, Ab23, FIG. 2): 2; MIC Shift of Colistin and Potentiator in Resistant Bacteria [1, 3]: 133 x; FICI Values of Colistin and Potentiator in Resistant Bacteria [1, 3]: 0.25; MIC Shift of Colistin and Potentiator in Resistant Bacteria [1, 4]: 64 x; FICI Values of Colistin and Potentiator in Resistant Bacteria [1, 4]: 0.30; MIC Shift of Colistin and Potentiator in Resistant Bacteria [1, 5]: 16 x; FICI Values of Colistin and Potentiator in Resistant Bacteria [1, 5]: 0.26
4	8		CN(C)CCCNc1nc(-c2cc(Br)cc(C(F)(F)F)c2)nc2c(C(F)(F)F)cccc12 [compound 505]	colistin MIC shift, Ab23 at (compd concentration) ([2]; compound concentration 4 μM): 32x
8	8	8-16x	CNCCCN(C)c1nc(-c2cc(Br)cc(C(F)(F)F)c2)nc2c(C)cccc12 [compound 342]	
4	8		Cc1cccc2c(NCCCN(C)C)nc(-c3cc(Cl)cc(C(F)(F)F)c3)nc12 [compound 506]	colistin MIC shift, Ab23 at (compd concentration) ([2]; compound concentration 4 μM): 16x
8	16		CNCCCN(C)c1nc(-c2cccc(-c3cc(C(F)(F)F)ccc3F)c2)nc2c(C)cccc12 [compound 487]	colistin MIC shift, Ab23 at (compd concentration) ([2]; compound concentration 4 μM): 32x
8	8	8-16x	Cc1cccc2c(NCCCN(C)C)nc(-c3cc(C(F)(F)F)cc(C(F)(F)F)c3)nc12 [compound 339]	
			FC(F)(F)c1ccc2c(-c3ccc(Cl)c(Cl)c3)n[nH]c2c1 [compound II]	time-kill: effect on Ab23 cells in the absence of colistin (Ab23): had no effect on the cells; time-kill: effect in the presence of colistin (Ab23): potent synergists of colistin; MIC Shift of Colistin and Potentiator in Resistant Bacteria [1, 3]: 267 x; FICI Values of Colistin and Potentiator in Resistant Bacteria [1, 3]: 0.15; MIC Shift of Colistin and Potentiator in Resistant Bacteria [1, 4]: 32 x; FICI Values of Colistin and Potentiator in Resistant Bacteria [1, 4]: 0.39; MIC Shift of Colistin and Potentiator in Resistant Bacteria [1, 5]: 16 x; FICI Values of Colistin and Potentiator in Resistant Bacteria [1, 5]: 0.26
			CN(C)CCCNc1nc(/C=C/c2ccc(Cl)c(Cl)c2)nc2c(C(F)(F)F)cccc12 [compound III]	time-kill: effect on Ab23 cells in the absence of colistin (Ab23): reduced Ab23 in two hours, although the effect was not sustained; time-kill: effect in the presence of colistin (Ab23): potent synergists of colistin; MIC Shift of Colistin and Potentiator in Resistant Bacteria [1, 3]: 133 x; FICI Values of Colistin and Potentiator in Resistant Bacteria [1, 3]: 0.21; MIC Shift of Colistin and Potentiator in Resistant Bacteria [1, 4]: 533 x; FICI Values of Colistin and Potentiator in Resistant Bacteria [1, 4]: 0.17; MIC Shift of Colistin and Potentiator in Resistant Bacteria [1, 5]: 33 x; FICI Values of Colistin and Potentiator in Resistant Bacteria [1, 5]: 0.19
4	4	16x	CC(N)C(=O)n1cc(-c2ccc(Cl)c(Cl)c2)c2cc(Cl)ccc21 (stereo not shown) [compound 361]	
4	4	16x	NCC(=O)n1cc(-c2ccc(Cl)c(Cl)c2)c2cc(Cl)ccc21 [compound 360]	
			CN(C)CCCNc1nc(-c2cccc(-c3cc(C(F)(F)F)ccc3F)c2)nc2c(C(F)(F)F)cccc12 [IV]	MIC Shift of Colistin and Potentiator in Resistant Bacteria [1, 3]: 133 x; FICI Values of Colistin and Potentiator in Resistant Bacteria [1, 3]: 0.24; MIC Shift of Colistin and Potentiator in Resistant Bacteria [1, 4]: 512 x; FICI Values of Colistin and Potentiator in Resistant Bacteria [1, 4]: 0.21; MIC Shift of Colistin and Potentiator in Resistant Bacteria [1, 5]: 33 x; FICI Values of Colistin and Potentiator in Resistant Bacteria [1, 5]: 0.27
4	4	8-16x	CN(C)CCCNc1nc(-c2cc(Br)cc(C(F)(F)F)c2)nc2c(Br)cccc12 [compound 338]	
4	16	8-16x	Cc1cccc2c(NCCN(C)C)nc(-c3cc(Br)cc(C(F)(F)F)c3)nc12 [compound 345]	
8	8		CCN(CC)CCCC(C)Nc1nc(-c2cc(-c3ccccc3)cc(C(F)(F)F)c2)nc2c(C)cccc12 (stereo not shown) [compound 492]	colistin MIC shift, Ab23 at (compd concentration) ([2]; compound concentration 4 μM): 32x
8	8	8-16x	Cc1cccc2c(NCCCN(C)C)nc(-c3cc(Br)cc(C(F)(F)F)c3)nc12 [compound 353]	
8	16	8-16x	Cc1cccc2c(NCCCN3CCNCC3)nc(-c3cc(Br)cc(C(F)(F)F)c3)nc12 [compound 348]	
4	4	8-16x	CN(C)CCCNc1nc(-c2cc(Br)cc(C(F)(F)F)c2)nc2c(Cl)cccc12 [compound 337]	
